As usually defined, the IC50 is the point on the concentration scale where inhibition reaches its midpoint.

This is an account of results in US12331054B2, “Perk inhibiting imidazolopyrazine compounds” (HiberCell, Inc., priority 2019, dated 2025).

The target in test [1] is Recombinant human EIF2AK3 (PERK) catalytic domain (amino acids 536-1116) (Homo sapiens (Human), UniProt Q9NZJ5). Kind of test: PERK In Vitro Activity Assay (isolated), TR-FRET kinase assay. The note with it: isolated PERK enzyme, 1.5 μM ATP, read-out: Biochemical IC50. An excerpt:
PERK In Vitro Activity Assay (isolated):
In vitro Inhibition of PERK Enzyme Activity (isolated) Recombinant human EIF2AK2 (PKR) catalytic domain (amino acids 252-551), EIF2AK3 (PERK) catalytic domain (amino acids 536-1116), GFP-eIF2a substrate, and Terbium-labelled phospho-eIF2a antibody is obtained (Invitrogen, Carlsbad, CA).
Express and purify HIS-SUMO-GCN2 catalytic domain (amino acids 584-1019) from E. coli. Perform TR-FRET kinase assays in the absence or presence of inhibitors in a reaction buffer consisting of 50 mM HEPES, pH 7.5, 10 mM MgCb, 1.0 mM EGTA, and 0.01% Brij-35, and 100-200 nM GFP-eIF2a substrate. […] Add test compound, initiate the reaction by addition of enzyme, and incubate at room temperature for 45 minutes. Stop the reaction by addition of EDTA to a final concentration of 10 mM, add Terbium-labelled phospho-eIF2a antibody at a final concentration of 2 nM, and incubate for 90 minutes. Monitor the resulting fluorescence in an EnVison® Multilabel reader (PerkinElmer, Waltham, MA). Determine TR-FRET ratios and the resulting IC50 values using a 4-parameter nonlinear logistic equation as shown: Y=(A+((B−A)/(1+(C/x)AD)))) where, Y=% specific inhibition, A=Bottom of the curve, B=Top of the curve, C=absolute IC50 (concentration causing 50% inhibition), and D=hill slope.

The test system of test [2] is eIF2α in HEK293-EGFP-eIF2α cells. Kind of test: PERK Cellular Assay (HEK293-EGFP-eIF2α cells, tunicamycin-induced ER stress, TR-FRET). It counts as cell-based. The following applies: tunicamycin 2 hours. The method, then: Stable cell lines were created in HEK293 cells using lentiviral particles harboring an expression vector for GFP-eIF2α. Cells were selected using puromycin and enriched using fluorescence activated cell sorting against GFP. HEK293-EGFP-eIF2α cells were plated at 5000 cells/well in 384-well assay plates and incubated overnight at 37° C., 5% CO2. Inhibitor compounds were added to the wells by Echo acoustic dispensing and incubated for 30 minutes at 37° C., 5% CO2 prior to induction of ER stress by addition of tunicamycin to […] for 2 hours. Cells were lysed and TR-FRET was measured in an EnVision plate reader (PerkinElmer). FRET ratio data was normalized to signal from lysates treated with DMSO vehicle control and plotted as percent inhibition against 10-point; 3-fold dilution series of inhibitors. IC50 values were calculated using 4-parameter logistical fitting in XLFit.
A general note: Time-resolved FRET reads energy transfer from a long-lived donor to a nearby acceptor.

Recombinant human EIF2AK3 (PERK) catalytic domain (amino acids 536-1116), sequence (Q9NZJ5 536-1116): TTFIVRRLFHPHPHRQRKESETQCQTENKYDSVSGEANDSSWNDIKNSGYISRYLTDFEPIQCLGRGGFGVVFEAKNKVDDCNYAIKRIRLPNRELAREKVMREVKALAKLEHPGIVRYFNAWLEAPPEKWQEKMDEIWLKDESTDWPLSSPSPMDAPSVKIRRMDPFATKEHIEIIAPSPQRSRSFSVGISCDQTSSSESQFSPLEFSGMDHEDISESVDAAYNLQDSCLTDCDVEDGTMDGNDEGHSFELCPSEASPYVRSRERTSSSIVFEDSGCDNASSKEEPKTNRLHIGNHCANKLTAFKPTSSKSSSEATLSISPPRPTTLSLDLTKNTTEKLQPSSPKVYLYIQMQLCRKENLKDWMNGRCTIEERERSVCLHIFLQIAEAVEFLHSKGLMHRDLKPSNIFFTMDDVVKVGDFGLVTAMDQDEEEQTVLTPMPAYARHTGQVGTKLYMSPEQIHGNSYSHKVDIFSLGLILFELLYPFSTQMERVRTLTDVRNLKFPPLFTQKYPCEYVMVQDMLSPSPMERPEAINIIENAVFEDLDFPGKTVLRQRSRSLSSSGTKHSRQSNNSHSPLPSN

Turning to `Cc1cnc(N)c2c(-c3ccc(NC(=O)C(O)c4cccc(Cl)c4)cc3F)nc(C)n12` (stereo not drawn) [Example 78, N-(4-(8-amino-3,5-dimethylimidazo [1,5-a]pyrazin-1-yl)-3-fluorophenyl)-2-(3-chlorophenyl)-2-hydroxy-acetamide], the IC50 in test [1] and in test [2] (2 h) was 1 to 25 nM throughout.

Take `[2H]C([2H])([2H])c1nc(-c2ccc(NC(=O)C(O)c3cccc(F)c3)cc2C)c2c(N)ncc(Cl)n12` (stereo not drawn) [Example 32, N-[4-[8-amino-5-chloro-3-(trideuteriomethyl)imidazo[1,5-a]pyrazin-1-yl]-3-methyl-phenyl]-2-(3-fluorophenyl)-2-hydroxy-acetamide]: the IC50 in test [1] and in test [2] was 1 to 25 nM in each case.

Take `Cc1cn2c(C)nc(-c3ccc(NC(=O)C(O)c4cccc(F)c4)c(F)c3F)c2c(N)n1` (stereo not drawn) [Example 128, N-(4-(8-amino-3,6-dimethyl-imidazo[1,5-a]pyrazin-1-yl)-2,3-difluoro-phenyl)-2-(3-fluorophenyl)-2-hydroxyacetamide]: the half-maximal inhibitory concentration (IC50) in test [1] and in test [2] was 1 to 25 nM throughout.

Turning to `[2H]C([2H])([2H])c1nc(-c2ccc(NC(=O)C(O)c3cccc(F)c3)c(F)c2F)c2c(N)ncc(C)n12` (stereo not drawn) [Example 132, N-[4-[8-amino-5-methyl-3-(trideuteriomethyl)imidazo[1,5-a]pyrazin-1-yl]-2,3-difluoro-phenyl]-2-(3-fluoro-phenyl)-2-hydroxy-acetamide], the IC50 in test [1] and in test [2] was 1 to 25 nM in each case.

On to `Cc1cc(NC(=O)C(O)c2cccc(F)c2)ccc1-c1nc(C)n2c(Cl)cnc(N)c12` (stereo not drawn) [Example 28, N-(4-(8-amino-5-chloro-3-methylimidazo[1,5-a]pyrazin-1-yl)-3-methylphenyl)-2-(3-fluorophenyl)-2-hydroxyacetamide], for which the half-maximal inhibitory concentration (IC50) in test [1] and in test [2] was 1 to 25 nM each time.

On to `[2H]C([2H])([2H])c1nc(-c2ccc(NC(=O)C(O)c3cccc(Cl)c3)cc2C)c2c(N)nc(C)cn12` (stereo not drawn) [Example 35, N-[4-[8-amino-6-methyl-3-(trideuteriomethyl)imidazo[1,5-a]pyrazin-1-yl]-3-methyl-phenyl]-2-(3-chlorophenyl)-2-hydroxy-acetamide], for which the IC50 in test [1] fell in the range of 101 to 250 nM; in test [2], 1000 to 2000 nM.

Take `Cc1cnc(N)c2c(-c3ccc(NC(=O)C(O)c4cccc(C(F)(F)F)c4)cc3F)nc(C)n12` (stereo not drawn) [Example 93, N-(4-(8-amino-3,5-dimethylimidazo [1,5-a]pyrazin-1-yl)-3-fluoro-phenyl)-2-hydroxy-2-(3-(trifluoromethyl)phenyl)acetamide]: the IC50 lay in the range of 1 to 25 nM in test [1] and 51 to 100 nM in test [2].

For `[2H]C([2H])([2H])c1nc(-c2ccc(NC(=O)C(O)c3cccc(Cl)c3)cc2F)c2c(N)ncc(C)n12` (stereo not drawn) [Example 84, N-[4-[8-amino-5-methyl-3-(trideuteriomethyl)imidazo[1,5-a]pyrazin-1-yl]-3-fluoro-phenyl]-2-(3-chlorophenyl)-2-hydroxy-acetamide], the IC50 in test [1] and in test [2] was 1 to 25 nM throughout.

Take `[2H]C([2H])([2H])c1nc(-c2ccc(NC(=O)C(O)c3cc(F)cc(F)c3)cc2C)c2c(N)ncc(C(F)(F)F)n12` (stereo not drawn) [Example 47, N-[4-[8-amino-3-(trideuteriomethyl)-5-(trifluoromethyl)imidazo[1,5-a]pyrazin-1-yl]-3-methyl-phenyl]-2-(3,5-difluoro-phenyl)-2-hydroxy-acetamide]: the concentration for half-maximal inhibition (IC50) in test [1] was 26 to 50 nM; in test [2] it was 101 to 250 nM.

In the case of `[2H]C([2H])([2H])c1nc(-c2ccc(NC(=O)C(O)c3cccc(F)c3)cc2C)c2c(N)ncc(C)n12` (stereo not drawn) [Example 10, N-(4-(8-amino-5-methyl-3-(trideuteriomethyl)imidazo[1,5-a]pyrazin-1-yl)-3-methylphenyl)-2-(3-fluorophenyl)-2-hydroxyacetamide], the concentration for half-maximal inhibition (IC50) in test [1] and in test [2] (2 h) was 1 to 25 nM throughout.

`[2H]C([2H])([2H])c1nc(-c2cnc(NC(=O)C(O)c3cccc(F)c3)cc2C)c2c(N)nc(C)cn12` (stereo not drawn) [Example 179, N-[5-[8-amino-6-methyl-3-(trideuteriomethyl)imidazo[1,5-a]pyrazin-1-yl]-4-methyl-2-pyridyl]-2-(3-fluorophenyl)-2-hydroxy-acetamide]: the concentration for half-maximal inhibition (IC50) lay in the range of 1 to 25 nM in test [1] and 251 to 500 nM in test [2].

As for `[2H]C([2H])([2H])c1nc(-c2ccc(NC(=O)C(O)c3cccc(Cl)c3)cc2C)c2c(N)ncc(Cl)n12` (stereo not drawn) [Example 43, N-[4-[8-amino-5-chloro-3-(trideuteriomethyl)imidazo[1,5-a]pyrazin-1-yl]-3-methyl-phenyl]-2-(3-chlorophenyl)-2-hydroxy-acetamide], the IC50 in test [1] lay within 1 to 25 nM; in test [2], 26 to 50 nM.

`[2H]C([2H])([2H])c1nc(-c2ccc(NC(=O)C(O)c3cc(F)cc(C(F)(F)F)c3)c(F)c2F)c2c(N)ncc(C(F)(F)F)n12` (stereo not drawn) [Example 162, N-[4-[8-amino-3-(trideuteriomethyl)-5-(trifluoromethyl)imidazo[1,5-a]pyrazin-1-yl]-2,3-difluoro-phenyl]-2-[3-fluoro-5-(trifluoromethyl)phenyl]-2-hydroxy-acetamide]: the concentration for half-maximal inhibition (IC50) in test [1] and in test [2] was 1 to 25 nM in each case.

For the molecule `Cc1cnc(N)c2c(-c3ccc(NC(=O)C(O)c4cccc(F)c4)cc3OC(F)(F)F)nc(C)n12` (stereo not drawn) [Example 127, N-(4-(8-amino-3,5-dimethyl-imidazo[1,5-a]pyrazin-1-yl)-3-(trifluoromethoxy)phenyl)-2-(3-fluorophenyl)-2-hydroxyacetamide], the concentration for half-maximal inhibition (IC50) in test [1] lay within 1 to 25 nM; in test [2] it was 101 to 250 nM.

Take `[2H]C([2H])([2H])c1nc(-c2cnc(NC(=O)C(O)c3cccc(F)c3)cc2C)c2c(N)nc(C)cn12` (stereo not drawn) [Example 178, N-[5-[8-amino-6-methyl-3-(trideuteriomethyl)imidazo[1,5-a]pyrazin-1-yl]-4-methyl-2-pyridyl]-2-(3-fluorophenyl)-2-hydroxy-acetamide]: the IC50 in test [1] is 251 to 500 nM; in test [2], 4000 to 5000 nM.

On to `[2H]C([2H])([2H])c1nc(-c2ccc(NC(=O)C(O)c3cccc(C(F)(F)F)c3)cc2C)c2c(N)ncc(Cl)n12` (stereo not drawn) [Example 19, N-[4-[8-amino-5-chloro-3-(trideuteriomethyl)imidazo[1,5-a]pyrazin-1-yl]-3-methyl-phenyl]-2-hydroxy-2-[3-(trifluoromethyl)phenyl]acetamide], for which the half-inhibitory concentration (IC50) lay in the range of 1 to 25 nM in test [1] and 26 to 50 nM in test [2].

As to `[2H]C([2H])([2H])c1nc(-c2ccc(NC(=O)C(O)c3cc(F)cc(F)c3)c(F)c2F)c2c(N)ncc(Cl)n12` (stereo not drawn) [Example 156, N-[4-[8-amino-5-chloro-3-(trideuteriomethyl)imidazo[1,5-a]pyrazin-1-yl]-2,3-difluoro-phenyl]-2-(3,5-difluorophenyl)-2-hydroxy-acetamide], the 50% inhibitory concentration (IC50) in test [1] and in test [2] was 1 to 25 nM throughout.

For the molecule `Cc1c(-c2nc(C)n3c(C)cnc(N)c23)ccc(NC(=O)C(O)c2cccc(F)c2)c1F` (stereo not drawn) [Example 169, N-(4-(8-amino-3,5-dimethyl-imidazo[1,5-a]pyrazin-1-yl)-2-fluoro-3-methyl-phenyl)-2-(3-fluorophenyl)-2-hydroxy-acetamide], the IC50 in test [1] and in test [2] was 1 to 25 nM in each case.
